Test results as given in US20240285688A1, “Extensive whey protein hydrolysate with tolerogenic peptides” (N.V. Nutricia, priority 2019, published 2024).
Peptide text beside a SMILES is read from it.

experiment: Presence of tolerogenic betalactoglobulin peptides in feed, retentate and permeate of membrane ultrafiltration (micro LC-MS ESI MS2); format: physicochemical; conditions: Example 3: urea (8 M) added after hydrolysis and before ultrafiltration
Procedure: In a Multifors reactor (Infors HT) 500 gram of whey protein powder (WPC83, Arla Foods, with about 80% whey protein) was dissolved in water at a final concentration of about 4 wt % at a temperature of about 75° C., giving a protein concentration of about 3.2 wt %. After dissolving the mixture was cooled to 58° C. and the pH was adjusted to neutral (pH 7-8). Proteolytic enzymes were added (Trypsin, Neova Technologies Inc) to a concentration of 33 mg/100 g solution and hydrolysis took place for about 105 min under continuous stirring. During hydrolysis the pH was kept constant. After hydrolysis the mixture was quickly cooled to 4° C.
Next the mixture of whey protein hydrolysate and proteolytic enzymes was filtrated. 200 ml of the mixture (the feed) was filtrated for 20 minutes on a MMS Triple System membrane filtration unit (MMS AG Membrane Systems) provided with an ultrafiltration membrane from Koch (Koch: HFK-131, a flat sheet polyethersulfone ultrafiltration membrane with a molecular weight cut off of 10 kDa) under a pressure of 8 bars. A one-layer filtration setup was used and the retentate was circulated during filtration. Each membrane was used only once to promote reproducibility. The filtration cooling system was set to 15° C. The permeate was weighted, MMS filtration software was used for the registering of the permeate throughput. Samples were taken of the mixture before membrane filtration (the feed), and of the permeate and retentate after the membrane filtration step. About 93% of permeate (wt % of total feed) was produced comprising about 85 wt % of peptides (wt % of the peptides in the feed). Samples were stored at −50° C. for further analysis.
The presence of tolerogenic betalactoglobulin peptides in the samples was analyzed according to Gouw et al., 2018, Clin. Exp. Allergy 48:[…], with the modification that instead of nanoLC-ESI MS2, micro LC-MS ESI MS2 was used. The presence of 5 specific peptides was tested (region overlapping with the 13-48 AA acid region of betalactoglobulin in bold):
The process of example 1 was repeated. The only difference was that Citrem (Grinsted® Citrem, DuPont) was added at an amount of about 3.6 gram before the pH adjustment and the addition of the proteolytic enzymes. […]
The process of example 2a was repeated, the only difference being that instead of the emulsifier, 51 gram of urea (source Merck) was dissolved per 100 g water (8 M) and added after the hydrolysis step and before ultrafiltration. […] All peptides were detected in the retentate and feed, and peptides 1, 3, 4 and 5 of example 1 (i.e. SEQ ID NOs 66, 68, 69 and 70 with X=L) were detected in the permeate, in an amount of about 1-10 wt. % of the concentration of these peptides in the feed. […]

presence of the tolerogenic peptides in the permeate | SMILES
detected | CC[C@H](C)[C@H](NC(=O)[C@H](CC(=O)O)NC(=O)[C@H](CC(C)C)NC(=O)CNC(=O)[C@H](CCCCN)NC(=O)[C@H](CCSC)NC(=O)[C@@H](NC(=O)[C@H](CCC(N)=O)NC(=O)[C@@H](NC(=O)[C@@H](NC(=O)[C@@H](NC(=O)[C@@H](N)CC(C)C)[C@@H](C)CC)C(C)C)[C@@H](C)O)[C@@H](C)O)C(=O)N[C@@H](CCC(N)=O)C(=O)N[C@@H](CCCCN)C(=O)N[C@H](C(=O)N[C@@H](C)C(=O)NCC(=O)N[C@H](C(=O)N[C@@H](Cc1c[nH]c2ccccc12)C(=O)N[C@@H](Cc1ccc(O)cc1)C(=O)N[C@@H](CO)C(=O)N[C@@H](CC(C)C)C(=O)N[C@@H](C)C(=O)N[C@@H](CCSC)C(=O)N[C@@H](C)C(=O)N[C@@H](C)C(=O)N[C@@H](CO)C(=O)O)[C@@H](C)O)C(C)C [Peptide 1] (H-LIVTQTMKGLDIQKVAGTWYSLAMAAS-OH; N-terminus and C-terminus assumed)
detected | CC[C@H](C)[C@H](NC(=O)[C@H](CC(=O)O)NC(=O)[C@H](CC(C)C)NC(=O)CNC(=O)[C@H](CCCCN)NC(=O)[C@H](CCSC)NC(=O)[C@@H](N)[C@@H](C)O)C(=O)N[C@@H](CCC(N)=O)C(=O)N[C@@H](CCCCN)C(=O)N[C@H](C(=O)N[C@@H](C)C(=O)NCC(=O)N[C@H](C(=O)N[C@@H](Cc1c[nH]c2ccccc12)C(=O)N[C@@H](Cc1ccc(O)cc1)C(=O)N[C@@H](CO)C(=O)N[C@@H](CC(C)C)C(=O)N[C@@H](C)C(=O)N[C@@H](CCSC)C(=O)N[C@@H](C)C(=O)N[C@@H](C)C(=O)N[C@@H](CO)C(=O)N[C@@H](CC(=O)O)C(=O)N[C@H](C(=O)N[C@@H](CO)C(=O)N[C@@H](CC(C)C)C(=O)N[C@@H](CC(C)C)C(=O)N[C@@H](CC(=O)O)C(=O)N[C@@H](C)C(=O)N[C@@H](CCC(N)=O)C(=O)O)[C@@H](C)CC)[C@@H](C)O)C(C)C [Peptide 3] (H-TMKGLDIQKVAGTWYSLAMAASDISLLDAQ-OH; N-terminus and C-terminus assumed)
detected | CC[C@H](C)[C@H](NC(=O)[C@H](CC(=O)O)NC(=O)[C@H](CC(C)C)NC(=O)CNC(=O)[C@H](CCCCN)NC(=O)[C@H](CCSC)NC(=O)[C@@H](N)[C@@H](C)O)C(=O)N[C@@H](CCC(N)=O)C(=O)N[C@@H](CCCCN)C(=O)N[C@H](C(=O)N[C@@H](C)C(=O)NCC(=O)N[C@H](C(=O)N[C@@H](Cc1c[nH]c2ccccc12)C(=O)N[C@@H](Cc1ccc(O)cc1)C(=O)N[C@@H](CO)C(=O)N[C@@H](CC(C)C)C(=O)N[C@@H](C)C(=O)N[C@@H](CCSC)C(=O)N[C@@H](C)C(=O)N[C@@H](C)C(=O)N[C@@H](CO)C(=O)N[C@@H](CC(=O)O)C(=O)N[C@H](C(=O)N[C@@H](CO)C(=O)N[C@@H](CC(C)C)C(=O)N[C@@H](CC(C)C)C(=O)O)[C@@H](C)CC)[C@@H](C)O)C(C)C [Peptide 4] (H-TMKGLDIQKVAGTWYSLAMAASDISLL-OH; N-terminus and C-terminus assumed)
detected | CC[C@H](C)[C@H](NC(=O)[C@H](CC(=O)O)NC(=O)[C@H](CC(C)C)NC(=O)CNC(=O)[C@H](CCCCN)NC(=O)[C@H](CCSC)NC(=O)[C@@H](NC(=O)[C@H](CCC(N)=O)NC(=O)[C@@H](NC(=O)[C@@H](NC(=O)[C@@H](NC(=O)[C@@H](N)CC(C)C)[C@@H](C)CC)C(C)C)[C@@H](C)O)[C@@H](C)O)C(=O)N[C@@H](CCC(N)=O)C(=O)N[C@@H](CCCCN)C(=O)N[C@H](C(=O)N[C@@H](C)C(=O)NCC(=O)N[C@H](C(=O)N[C@@H](Cc1c[nH]c2ccccc12)C(=O)N[C@@H](Cc1ccc(O)cc1)C(=O)N[C@@H](CO)C(=O)N[C@@H](CC(C)C)C(=O)N[C@@H](C)C(=O)N[C@@H](CCSC)C(=O)N[C@@H](C)C(=O)N[C@@H](C)C(=O)N[C@@H](CO)C(=O)N[C@@H](CC(=O)O)C(=O)N[C@H](C(=O)N[C@@H](CO)C(=O)N[C@@H](CC(C)C)C(=O)N[C@@H](CC(C)C)C(=O)O)[C@@H](C)CC)[C@@H](C)O)C(C)C [Peptide 5] (H-LIVTQTMKGLDIQKVAGTWYSLAMAASDISLL-OH; N-terminus and C-terminus assumed)
